How the values were obtained:
[1] = target: T1, IDH2 R140Q (Homo sapiens, UniProt P48735, R140Q); test: IDH2 R140Q enzymatic assay (cofactor depletion, diaphorase/resazurin); assay type: biochemical; conditions: 16 hours preincubation time
T1 sequence (P48735 40-452 R140Q): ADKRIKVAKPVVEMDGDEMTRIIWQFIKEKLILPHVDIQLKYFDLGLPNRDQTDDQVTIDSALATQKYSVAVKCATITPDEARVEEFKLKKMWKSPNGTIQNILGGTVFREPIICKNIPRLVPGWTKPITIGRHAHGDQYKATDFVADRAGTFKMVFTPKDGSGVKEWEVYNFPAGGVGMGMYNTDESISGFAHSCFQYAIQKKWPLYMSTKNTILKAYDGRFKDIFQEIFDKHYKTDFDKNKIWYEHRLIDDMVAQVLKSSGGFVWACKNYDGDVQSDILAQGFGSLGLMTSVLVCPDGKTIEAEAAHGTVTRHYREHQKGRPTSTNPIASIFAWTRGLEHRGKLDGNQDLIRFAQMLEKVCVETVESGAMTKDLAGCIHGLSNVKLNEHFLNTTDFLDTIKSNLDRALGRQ

[2] = system: U87MG pLVX-IDH2 R140Q-neo cells; test: U87MG pLVX-IDH2 R140Q-neo cell based assay (2-HG by LC-MS); conditions: Homo sapiens, U-87 MG
Experimental: U87MG pLVX-IDH2 R140Q-neo cells are grown in T125 flasks in DMEM containing 10% FBS, 1× penicillin/streptomycin and 500 μg/mL G418. They are harvested by trypsin and seeded into 96 well white bottom plates at a density of 5000 cell/well in 100 μl/well in DMEM with 10% FBS. No cells are plated in columns 1 and 12. Cells are incubated overnight at 37° C. in 5% CO2. The next day compounds are made up at 2× concentration and 100 ul are added to each cell well. The final concentration of DMSO is 0.2% and the DMSO control wells are plated in row G. The plates are then placed in the incubator for 48 hours. At 48 hours, 100 ul of media is removed from each well and analyzed by LC-MS for 2-HG concentrations. The cell plate is placed back in the incubator for another 24 hours. At 72 hours post compound addition, 10 mL/plate of Promega Cell Titer Glo reagent is thawed and mixed. The cell plate is removed from the incubator and allowed to equilibrate to room temperature. Then 100 ul of reagent is added to each well of media. The cell plate is then placed on an orbital shaker for 10 minutes and then allowed to sit at room temperature for 20 minutes. The plate is then read for luminescence with an integration time of 500 ms to determine compound effects on growth inhibition.

IC50 [1]: < 50 nM
IC50 [2]: < 50 nM
SMILES: Nc1nc(Nc2ccnc(C(F)(F)F)c2)nc(-c2cccc(C(F)(F)F)n2)n1 [Compound 378, 6-(6-(trifluoromethyl)pyridin-2-yl)-N2-(2-(trifluoromethyl)pyridin-4-yl)-1,3,5-triazine-2,4-diamine]

From US9724350B2, “N,6-bis(aryl or heteroaryl)-1,3,5-triazine-2,4-diamine compounds as IDH2 mutants inhibitors for the treatment of cancer” (Agios Pharmaceuticals, Inc., priority 2013, dated 2017)
